Measurements reported in patent publication US8338641B2, “Method for treating atypical facial pain” (UCB Pharma GmbH, priority 2004, dated 2012).
“Also recorded” adds a separate entry of the source.

Experiments:
[1] = tested on: rats with infraorbital nerve injury; experiment: Mechanical sensitivity (von Frey filaments) after photochemically-induced ischemic infraorbital nerve (IoN) injury, model of trigeminal neuropathic pain; assay type: in vivo, rat; settings: for effect on mechanical hypersensitivity (response threshold to von Frey stimulation): 14-16 days after IoN injury
Experimental: (§1) Male and female Sprague-Dawley rats (Möllegård, Denmark) weighing 200-250 g at the start of the experiments were used. All experimental procedures were approved by the local research ethics committee.
Rats were anesthetized with chloral hydrate. The left IoN was exposed via a longitudinal incision at the maxillary region and all branches of the nerve were carefully lifted on a glass hook. A piece of aluminium foil was placed under the nerve and the nerve was irradiated for 6 min with the tunable argon ion laser. The rat was positioned so that the laser beam was perpendicular and transversal to the exposed nerve. Immediately before irradiation erythrosin B was injected i.v. and the injection was repeated after 5 min. After irradiation the wound was closed in layers.
Mechanical sensitivity was tested with a series of von Frey filaments. The rat was gently held by the experimenter and the von Frey filaments were applied in ascending order to the IoN territory on the hairy skin of the vibrissal pad. The stimulation with each filament consisted of four consecutive applications at 1/s on the injured and then on the contralateral side. […] The rats were habituated to the testing procedure for several days before nerve injury and baseline response was determined in two sessions. Testing was carried out 3, 7, 10 and 14 d after the injury to assess the development of mechanical hypersensitivity. The effect of SPM 927 (7.5, 15, and 30 mg/kg) was tested 14-16 days after injury when mechanical hypersensitivity was well established. Measurements were taken 30 min, 1 h, 2 h, and 3 h following drug injection.
(§2) SPM 927 was dissolved in physiological saline and injected intraperitoneally. The data are expressed as median±M.A.D. and analysed with Wilcoxon signed-ranks test.

[2] = tested on: rats with infraorbital nerve injury; experiment: Motor deficits observed in rats with IoN injury after drug injection; assay type: in vivo, rat; settings: i.p., doses 7.5-30 mg/kg
Experimental: as §1, §2

COC[C@@H](NC(C)=O)C(=O)NCc1ccccc1 [SPM 927, (R)-2-acetamide-N-benzyl-3-methoxypropionamide]
effect on mechanical hypersensitivity (response threshold to von Frey stimulation) ([1]; female rats, 7.5 mg/kg i.p.): no effect | effect on mechanical hypersensitivity (response threshold to von Frey stimulation) ([1]; female rats, 15 mg/kg i.p.): significantly and markedly alleviated mechanical hypersensitivity | effect on mechanical hypersensitivity (response threshold to von Frey stimulation) ([1]; female rats, 20 mg/kg i.p.): significantly and markedly alleviated mechanical hypersensitivity | effect on mechanical hypersensitivity (response threshold to von Frey stimulation) ([1]; male rats, 15 mg/kg i.p.): did not alleviate mechanical hypersensitivity | effect on mechanical hypersensitivity (response threshold to von Frey stimulation) ([1]; male rats, 20 mg/kg i.p.): did not alleviate mechanical hypersensitivity | effect on mechanical hypersensitivity (response threshold to von Frey stimulation) ([1]; male rats, 30 mg/kg i.p.): significantly alleviated mechanical hypersensitivity for 3 h | overall analgesic or/and anti-allodynic effect in rat model of trigeminal neuropathic pain ([1]; systemic, single dose administration): dose-dependent analgesic or/and anti-allodynic effect; also recorded: significant efficacy in reducing mechanical hypersensitivity | motor deficits [2]: did not cause motor deficits
